Reference: patent US20060263453A1, “Methods and compositions for modulating glutamate dehydrogenase” (priority 2004, published 2006)

Legend:
islets = assay: [U-14C]-glutamine oxidation in islets; format: cell-based, rat
Protocol: In a first experiment, a batch of 100 islets were incubated with glucose-free Krebs-Ringer bicarbonate buffer, as described herein, containing 20 μM EGCG or 20 μM EGC and 2 mM glutamine for 60 minutes. The islets were then incubated in the presence of varying concentrations of BCH (shown in FIG. 7A) for 60 minutes, and for an additional 60 minutes in the presence of 2 mCi [U-^14C]-glutamine (NEN-Life Science Products, UK). Next, [U-^14C]-glutamine oxidation in the incubated islets was measured. A trap filter was placed in each tightly sealed glass tube of the perifusion apparatus to collect the ^14CO2 produced by the islets, and the amount of radioactivity was determined by liquid scintillation counting. The results are summarized in FIG. 7A, and are presented as means±S.E. from 4 separate experiments. […] The islets were then incubated in the presence of 10 mM BCH (or no BCH—to measure “baseline” glutamine oxidation levels) for 60 minutes. The islets were then incubated for an additional 60 minutes in the presence of 2 mCi [U-^14C]-glutamine (NEN-Life Science Products, UK). Next, [U-^14C]-glutamine oxidation in the incubated islets was measured, as described above.

[1] = ethanol, DMSO, dimethyl formamide; cited from earlier work
Bovine GDH (bGDH) = target: T1, Bovine GDH (bGDH) (Bos taurus, UniProt P00366); assay: reductive amination reaction catalyzed by bovine GDH (NADH absorbance at 340 nm); format: biochemical; details: FIG. 1A
T1 construct: purchased Sigma Aldrich Chemical Company (St. Louis, Mo.)
Protocol: In this Example, the effects of epigallocatechin gallate (EGCG), epigallocatechin (EGC), epicatechin gallate (ECG), and epicatechin (EC) from Camellia sinensis on GDH activity were tested. Bovine GDH (bGDH) was used in this Example, which was obtained as an aqueous (NH4)2SO4 suspension from Sigma Aldrich Chemical Company (St. Louis, Mo.).
First, aliquots of GDH were extensively dialyzed against 0.1M sodium phosphate buffer, pH 7.0, which contained 1 mM ethylenediaminetetraacetic acid (EDTA). The enzyme concentrations were adjusted to 1 mg/ml and the amount of enzyme added to the reaction mixture, for kinetic analysis, was adjusted to yield optimal steady state velocity measurements. All solutions were made immediately prior to use. Enzyme assays were performed by monitoring reduced coenzyme absorbance at 340 nm using a Shimadzu UV-1601 spectrophotometer. The reductive amination reactions were performed in 3 mL volumes at pH 7.0 in the presence of 0.1 mM nicotinamide adenine dinucleotide (NADH), 50 mM NH4Cl, and 5 mM 2-oxoglutarate. The rate of NADH oxidation was calculated using an extinction coefficient of 6.22 mM^−1 cm^−1.

rat islets [2] = assay: BCH-stimulated insulin secretion and oxygen consumption in perifused islets; format: cell-based, Wistar rat; details: 20 μM
Protocol: In this Example, the effects of EGCG and EGC on LSIS were measured, while simultaneously monitoring respiration rates. More particularly, the effects of EGCG (20 μM) and EGC (20 μM) on BCH-stimulated insulin secretion were measured. First, 1000 adult male Wistar rat islets were isolated as described above and were cultured on a glass perfusion chamber in 10 mM glucose for 3 days. Next, the islets were perifused in an oxygen consumption measurement apparatus containing BCH, along with 0 μM EGCG and 0 μM EGC, 20 μM EGCG, or 20 μM EGC. The perifusion apparatus used in these Examples consisted of a peristaltic pump, a water bath (37° C.), a gas exchanger (artificial lung: media flowed through the thin-walled silastic tubing loosely coiled in a glass jar that contained 20% O2 and 5% CO2 balanced with N2), and fraction collector. All transfer lines were insulated. After the system was provided with 20 μM EGCG or 20 μM EGC, oxygen partial pressure was recorded every 10 seconds by phosphorescence lifetimes of an oxygen-sensitive porphyrin (palladium-mesotetra; 4-carboxyphenyl porphyrin dendrimer). The dye molecules were excited with pulses at 524 nm from a UV lead and emission was measured at 690 nm. The inflow oxygen tension was measured in the absence of islets in the chamber before and after each experiment. The perifusate was a Krebs buffer (pH 7.4) containing 2.2 mM Ca^2+, 1% bovine serum albumin equilibrated with 20% O2 and 5% CO2 balanced with N2. The flow rate was […] and samples were collected every 2 minutes for insulin measurements by radioimmunoassay. The results are summarized in FIG. 6, and are presented as means±S.E. for 1000 islets from 3 separate experiments for EGCG (and from 1 experiment for EGC). Due to the high density of data, S.E. is only shown in every 20 samples.

rat islets [3] = assay: glucose stimulated insulin secretion in 120 minute run-down islets; format: cell-based
Protocol: Under brief “run-down” conditions used for the above GSIS analysis, where glucose was removed from the cells for only […], the levels of high-energy metabolites (i.e., GTP and ATP) have not been depleted and these effectively shut down GDH activity. This, in turn, eliminated any effect GDH might have on insulin secretion. Therefore, the effects of EGCG were also tested on […] that had been “run-down” for a longer period of time (120 minutes) prior to glucose stimulation (FIG. 11). Specifically, isolated rat islets were cultured with 10 mM glucose for 3 days and then perifused in the absence of glucose and in the presence of 0 or 20 μM EGCG (or 20 μM EGC) for “run-down” periods of 120 minutes prior to stimulation with a glucose ramp (0 to 25 mM, 0.5 mM/minute). Finally, islets were exposed to 30 mM KCl. The insert highlighted the insulin secretion from time=120 minutes to 140 minutes.

rat islets [4] = assay: glucose stimulated insulin secretion (GSIS), short run-down (50 minutes), glucose ramp; format: cell-based; details: 20 μM, FIGS. 8A and 8B
Protocol: In this Example, the effect of EGCG on glucose stimulated insulin secretion (GSIS) was examined. Isolated rat islets were cultured with 20 mM glucose (FIG. 8A) and 10 mM glucose (FIG. 8B) for 3 days, then perifused in the absence of glucose for 50 minutes and in the presence of 0 μM EGCG; 20 μM EGCG; or 20 μM EGC. Next, the islets were stimulated by a glucose ramp (0 to 25 mM, 0.5 mM/minute). Finally, the islets were exposed to 30 mM KCl. Insulin levels were measured every minute by radioimmunoassay. The results shown in FIG. 8A are presented as means±S.E. for 100 islets from 3 separate experiments (and means±S.E. for 100 islets from 1 experiment for FIG. 8B).

T1 sequence (P00366 58-558): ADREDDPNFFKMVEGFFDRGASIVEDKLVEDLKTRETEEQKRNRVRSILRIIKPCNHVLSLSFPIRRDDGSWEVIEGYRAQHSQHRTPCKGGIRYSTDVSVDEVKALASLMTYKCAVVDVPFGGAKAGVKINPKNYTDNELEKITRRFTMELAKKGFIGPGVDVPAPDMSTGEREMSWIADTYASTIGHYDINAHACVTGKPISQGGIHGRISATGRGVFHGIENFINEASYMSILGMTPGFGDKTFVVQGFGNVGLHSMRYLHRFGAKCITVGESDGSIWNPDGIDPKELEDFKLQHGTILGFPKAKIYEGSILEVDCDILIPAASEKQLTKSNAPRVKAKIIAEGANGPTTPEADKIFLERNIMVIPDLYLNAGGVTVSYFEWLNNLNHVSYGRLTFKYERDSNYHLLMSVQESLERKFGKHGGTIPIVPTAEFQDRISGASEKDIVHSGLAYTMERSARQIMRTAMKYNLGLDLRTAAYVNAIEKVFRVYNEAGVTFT

NC1(C(=O)O)CC2CCC1C2 (stereo not drawn) [BCH, beta-2-aminobicyclo[2.2.1]heptane-2-carboxylic acid, reference compound]
stimulation of glutamine oxidation (islets; 100 islets, 2 mM glutamine, FIG. 7A): dose-dependently stimulated

[N-]=[N+]=CC(=O)CC[C@H](N)C(=O)O [DON, 6-diazo-5-oxo-L-norleucine, reference compound]
effect on 10 mM BCH-stimulated glutamine oxidation (islets; 3 mM glutamine, FIG. 7B, 7C): blocks glutaminolysis to levels lower than the unstimulated β-cells at high concentrations

O=C(O[C@@H]1Cc2c(O)cc(O)cc2O[C@@H]1c1ccc(O)c(O)c1)c1cc(O)c(O)c(O)c1 [ECG, (2R,3R)-2-(3,4-Dihydroxyphenyl)-3,4-dihydro-1 (2H)-benzopyran-3,5,7-triol 3-(3,4,5-trihydroxybenzoate)]
soluble in organic solvents [1]: soluble | potent inhibitor of GDH activity (Bovine GDH (bGDH)): potent inhibitors

Oc1cc(O)c2c(c1)O[C@H](c1cc(O)c(O)c(O)c1)[C@H](O)C2 [EGC, epigallocatechin, reference compound]
sensitization of the β-cells to BCH (rat islets [2]): slight sensitization | effect on LSIS (BCH-induced insulin secretion) (rat islets [2]; FIG. 6A): did not cause significant inhibition | effect on BCH-induced increase in respiration rates (rat islets [2]; FIG. 6B): nor did it have as strong of an effect on respiration as compared to EGCG | block of BCH stimulation of glutaminolysis (glutamine oxidation) (islets; 20 μM, 2 mM glutamine, FIG. 7A): not | potentiation of GSIS (rat islets [3]; 20 μM, 120 minute run-down, FIG. 11): not | effect on KCl-stimulated release of insulin (rat islets [3]; 30 mM KCl): neither EGCG or EGC affected | sensitization of the cells at low glucose concentrations (rat islets [3]; FIG. 11, inset): slightly sensitize | effect on GSIS (rat islets [4]): neither EGC nor EGCG affected | potent inhibitor of GDH activity (Bovine GDH (bGDH)): not
